Source: patent US20250283110A1, “METHODS AND COMPOSITIONS FOR TRANSDUCTION OF NK CELLS” (ST. JUDE CHILDREN'S RESEARCH HOSPITAL, INC., priority 2021, published 2025)
“Also recorded” adds a separate entry of the source.

Columns and labels:
[1] = tested on: TBK1/IKKε; settings: Ref. 20; cited from earlier work
[2] = tested on: NK cells; test: cells; format: cell-based; settings: Homo sapiens, 72 h; N=3; read-out: EC50 of YFP expression in NK cells
[3] = tested on: NK cells; test: NK cell immunophenotyping by flow cytometry with and without inhibitor; format: cell-based, Human; settings: 2 μM for 24 hours, then 48 hours fresh media; N=3; paired two-tailed t-test treated vs untreated
Description: FIGS. 4A-4B show representative data relating to NK cell phenotype with and without treatment with a representative disclosed compound, MRT67307. Briefly, NK cells were treated with and without 2μMMRT67307 for 24 hours. Media was removed and replaced with fresh complete media and cells incubated for another 48 hours. Cells were immunophenotyped via flow cytometry. NK cells were identified as efluor455UV negative, CD3 negative, and CD56 positive.
250,000 NK cells were collected and washed twice in DPBS. Surface HER2-CAR detection was determined via immunolabeling with anti-F (ab′) 2-AF647 (109-606-006, Jackson Labs, Bar Harbor, ME, USA; 1:100), CD19-CAR was detected with PE conjugated recombinant human CD19 protein (3309HP, Creative Biomart, Shirley, NY, USA; 1:100), or YFP were utilized for detection on a BD FACS Lyric machine and analyzed with FlowJo v10 (BD). Immunophenotyping was performed on a BD Symphony flow cytometer. Antibodies used are delineated in below in Table 1.

**Q.** What does the source list for `O=C(NCCCNc1nc(Nc2cccc(CN3CCOCC3)c2)ncc1C1CC1)C1CCC1` [MRT67307, N-[3-[[5-cyclopropyl-2-[3-(morpholin-4-ylmethyl)anilino]pyrimidin-4-yl]amino]propyl]cyclobutanecarboxamide]?
**A.** specificity for TBK1/IKKε [1]: more specific for TBK1/IKKε than BX-795; EC50 [2]: 1.1 µM; effect on NK cell phenotype [3]: no effect; also recorded: No parameter was significantly different

**Q.** Which EC50 [2] does the source give for `O=C(NCCCNc1nc(Nc2cccc(NC(=O)N3CCCC3)c2)ncc1I)c1cccs1` [BX-795] here?
**A.** 5 µM
